120 compounds from a melting point compilation (Tetko et al.) can be followed below.

Take `Cc1cc(Br)cn2c(CO)cnc12`: the melting point (as a rule, the temperature of the solid-liquid transition) is 174 to 176 °C.

The compound `COc1ccc2oc(C(=O)O)c(C)c2c1` returned a melting point of 202 to 204 °C.

On to `CC(C)(C)c1ccc(-c2ccc(C=O)o2)cc1`, for which the melting point was in the range of 70 to 72 °C.

Consider `CC(C)(C)c1ccc(S(N)(=O)=O)s1`, for which the melting point lay in the range of 80 to 82 °C.

With `Cc1n[nH]c2cc(N)ccc12`, the melting point was in the range of 189 to 191 °C.

In turn, `O=C(NO)c1occc1CSc1ccccc1` gave a melting point of 99 to 101 °C.

In turn, `Nc1nonc1-c1ccc(Cl)cc1Cl` registered a melting point of 105 to 107 °C.

`CS(=O)(=O)Cc1ccc(C(=O)O)o1` came in with a melting point of 186 to 188 °C.

The compound `Cc1nn(C)c(Oc2cccnc2)c1C=O` displayed a melting point of 91 to 93 °C.

The compound `Cn1cccc1-c1csc(N)n1` yielded a melting point of 79 to 81 °C.

Consider `N#Cc1cc(C#N)c(S)nc1N`, for which the melting point lay in the range of 280 to 282 °C.

As to `COC1=CC(=C(N)N=O)C=CN1`, the melting point lay in the range of 174 to 176 °C.

In turn, `O=C(O)CCNS(=O)(=O)c1ccc2c(c1)CCCC2` came in with a melting point of 106 to 110 °C.

In turn, `O=c1[nH]c2cc(F)c(F)cc2[nH]1` showed a melting point of 332 to 334 °C.

`COc1ccc(C#N)c(N)c1` yielded a melting point of 91 to 93 °C.

For the compound `ClCc1csc(-c2ccccn2)n1`, the melting point was 85 to 87 °C.

As for `N#Cc1ccccc1-c1ccccc1C(=O)O`, the melting point lay in the range of 168 to 170 °C.

`COc1cc(Cl)ccc1S(N)(=O)=O` came in with a melting point of 169 to 171 °C.

As for `CN(Cc1ccccc1)c1nc2ccccc2[nH]1`, the melting point lay within 206 to 208 °C.

In the case of `CC(=O)N(c1ccc(Cl)cc1)c1nc(C=O)cs1`, the melting point is 210 to 212 °C.

Compound `CC(C)(C)c1cc(C(=O)O)cc(C(=O)O)c1` registered a melting point of 300 to 302 °C.

In turn, `O=C(O)c1ccc(S(=O)(=O)N2CCCCCC2)cc1` had a melting point of 235 to 237 °C.

For the compound `O=C(O)c1csc(-c2ccc(Cl)c(Cl)c2)n1`, the melting point lay in the range of 212 to 214 °C.

Compound `COC(=O)CNC(=O)c1cccc(N)c1` registered a melting point of 103 to 105 °C.

`CCC(C)C(N)C(N)=O` (stereo not given) had a melting point of 76 to 78 °C.

On to `O=C(O)CCN1C(=O)NC2(CCCC2)C1=O`, for which the melting point lay within 167 to 169 °C.

For `Cc1cc(C(=O)CCl)c(C)n1CC1CCCO1` (stereo not given), the melting point was 88 to 90 °C.

Consider `CCCc1cc(N)on1`, for which the melting point lay within 54 to 58 °C.

In the case of `N#Cc1ccc(I)c(C(F)(F)F)c1`, the melting point lay within 100 to 102 °C.

On to `O=c1c2ccccc2nc(O)n1-c1ccccc1`, for which the melting point is 217 to 220 °C.

`O=C(Nc1ccc(C(=O)O)c(O)c1)c1ccc(Cl)c(Cl)c1` gave a melting point of 272 to 274 °C.

In turn, `NCCNc1ccc(-c2ccccc2)nn1` registered a melting point of 113 to 115 °C.

Turning to `O=C(O)/C=C/S(=O)(=O)c1ccccc1`, the melting point fell in the range of 190 to 192 °C.

Take `Cc1nn(C)c(Br)c1C#N`: the melting point fell in the range of 109 to 111 °C.

The compound `Cc1cc(N)cc2[nH]ncc12` had a melting point of 179 to 181 °C.

Compound `O=S(=O)(NCC1CC1)c1ccc(Cl)nc1` yielded a melting point of 95 to 97 °C.

`O=C(O)c1c(Cl)nc2sccn12` registered a melting point of 181 to 183 °C.

`Fc1ccc(Nc2nccs2)cc1Cl` displayed a melting point of 124 to 126 °C.

In the case of `NC(=NO)c1cccc(NC(=O)C2CC2)c1`, the melting point fell in the range of 229 to 231 °C.

Take `CC(C)(C)OC(=O)N1CCC(C(=O)O)(c2ccccc2)CC1`: the melting point was 116 to 118 °C.

`CC(C)c1cnc(S)n1C1CC1` yielded a melting point of 175 to 177 °C.

On to `O=C(O)CCCCCNS(=O)(=O)c1ccc2c(c1)OCCO2`, for which the melting point was in the range of 86 to 90 °C.

`O=Cc1cccc(OC(C(=O)O)c2ccccc2)c1` (stereo not given): the melting point was in the range of 98 to 100 °C.

Regarding `O=C(CCl)Nc1nc(-c2ccccc2Cl)c(-c2ccccc2Cl)s1`, the melting point was in the range of 135 to 137 °C.

Regarding `COC(=O)c1occc1CBr`, the melting point was in the range of 50 to 52 °C.

As for `NNC(=O)NCc1cccc(C(F)(F)F)c1`, the melting point lay within 86 to 88 °C.

Consider `Cc1cccc(I)c1C(=O)O`, for which the melting point lay in the range of 116 to 118 °C.

The compound `Cc1cc(C(=O)N2CCOCC2)ccc1N` came in with a melting point of 101 to 103 °C.

For the compound `COC(=O)c1ccc(S)cc1`, the melting point lay within 53 to 55 °C.

Take `Cc1ccc(-c2csc(CC(N)=NO)n2)cc1`: the melting point lay in the range of 146 to 148 °C.

`Sc1nnc(Nc2ccccc2)s1` returned a melting point of 160 to 162 °C.

In the case of `Cc1cc(C(=O)CCl)c(C)n1-c1ccc(Br)cc1`, the melting point lay in the range of 82 to 84 °C.

`O=C(O)COc1ccc2ccccc2c1Br` had a melting point of 158 to 160 °C.

`O=[N+]([O-])c1cn(Cc2ccc(F)cc2)cn1`: the melting point lay in the range of 109 to 111 °C.

For `CC1(CO)CCN(Cc2ccccc2)CC1`, the melting point fell in the range of 59 to 61 °C.

`Cc1oc(C(=O)O)cc1Cn1cc(Br)cn1` registered a melting point of 154 to 156 °C.

In turn, `Cc1cccc(-n2c(S)nnc2-c2ccccc2)c1` displayed a melting point of 133 to 135 °C.

`Nc1cccc(CN2CCOCC2)n1` returned a melting point of 129 to 131 °C.

Take `O=C(Nc1ccncc1)OCC(F)(F)F`: the melting point is 193 to 195 °C.

For `CCN(CC)S(=O)(=O)c1ccc2nc(CCl)[nH]c2c1`, the melting point was 93 to 95 °C.

Compound `CCOC(=O)c1cc(Br)c(OC)c(S(=O)(=O)Cl)c1` returned a melting point of 62 to 64 °C.

Compound `CS(=O)(=O)CC1(CC(=O)O)CC1` had a melting point of 89 to 91 °C.

Regarding `O=C(O)c1ccccc1Oc1cccnc1`, the melting point is 134 to 136 °C.

Regarding `COc1ccc(NC#N)cc1Cl`, the melting point was in the range of 95 to 97 °C.

The compound `CC(=O)c1ccc(N(C)C)cc1O` displayed a melting point of 120 to 122 °C.

With `Nc1nc(CCCC(=O)O)cs1`, the melting point lay in the range of 89 to 91 °C.

`COc1ccc(-c2[nH]c3ccccc3c2CCC(=O)O)cc1` yielded a melting point of 134 to 136 °C.

Compound `CC(C)(C(=O)O)C(O)c1ccc(OCc2ccccc2)cc1` (stereo not given) showed a melting point of 167 to 169 °C.

The compound `Nc1ccnn1Cc1ccsc1` showed a melting point of 33 to 35 °C.

Compound `COc1ccc(-c2cc(C(=O)O)c3sc(N4CCCCC4)nc3n2)cc1OC` displayed a melting point of 284 to 286 °C.

For `COc1ccc(NS(=O)(=O)c2cc(N)ccc2N2CCCCC2)cc1`, the melting point lay in the range of 145 to 154 °C.

`CS(=O)(=O)c1cc(C(=O)O)c(Cl)cc1Cl` showed a melting point of 210 to 212 °C.

Consider `Cc1ccc(SC2CCCC2)c(C(=O)O)c1`, for which the melting point lay within 130 to 132 °C.

`O=S(=O)(c1ccc(S)nc1)N1CCCCC1` gave a melting point of 218 to 221 °C.

In turn, `Nc1ccccc1-n1ccc(C(=O)O)n1` displayed a melting point of 136 to 138 °C.

In the case of `CS(=O)(=O)N1CCNC(=O)C1`, the melting point was in the range of 164 to 166 °C.

Turning to `COc1cccc(Nc2nc3ccccc3s2)c1`, the melting point lay within 117 to 119 °C.

`CCCS(=O)(=O)N1CCC(N)CC1` returned a melting point of 49 to 51 °C.

With `COc1ccc(-c2nc(N)sc2-c2ccc(OC)cc2)cc1`, the melting point fell in the range of 207 to 209 °C.

In the case of `COC(=O)c1ccc(S(=O)(=O)Cl)c([N+](=O)[O-])c1`, the melting point is 100 to 102 °C.

Take `COc1ccc(S(=O)(=O)Cl)cc1Cl`: the melting point lay in the range of 80 to 82 °C.

Turning to `Cc1ccc(O)c(C(=O)NO)c1`, the melting point lay in the range of 179 to 181 °C.

The compound `CC(C)OCc1c(C(=O)O)oc2ccccc12` returned a melting point of 131 to 133 °C.

`CC1(C)NC(=O)N(CCCC(=O)O)C1=O` showed a melting point of 97 to 99 °C.

In the case of `O=S(=O)(NC1CC1)c1ccc(Cl)nc1`, the melting point was in the range of 94 to 96 °C.

Consider `NS(=O)(=O)c1cnn(-c2ccccc2)c1`, for which the melting point was 196 to 198 °C.

As for `O=C(O)CS(=O)(=O)CC(=O)Nc1cccc(Br)c1`, the melting point fell in the range of 165 to 167 °C.

The compound `COC(=O)c1cc(OC)c(OC(F)F)cc1[N+](=O)[O-]` showed a melting point of 96 to 98 °C.

Consider `CC(=O)c1ccc(-n2c(C)c[nH]c2=O)cc1`, for which the melting point fell in the range of 203 to 205 °C.

Take `Cc1c(C(=O)O)nnn1-c1ccc(Br)cc1Cl`: the melting point was in the range of 163 to 165 °C.

In the case of `Cc1ccc(NC(=O)C2CSCN2)c(C)c1` (stereo not given), the melting point was 89 to 91 °C.

`Cc1ccc2[nH]c(C(=O)O)c(Cl)c2c1` registered a melting point of 191 to 193 °C.

In the case of `Nc1nc(Cl)ccc1[N+](=O)[O-]`, the melting point fell in the range of 188 to 193 °C.

`Cc1cc(S(C)(=O)=O)c(C)c(S(=O)(=O)Cl)c1` registered a melting point of 122 to 124 °C.

In turn, `O=C1NC(=O)C2(CCNCC2)N1` came in with a melting point of 240 to 250 °C.

In turn, `O=c1[nH]c2ccc(S(=O)(=O)Cl)cc2[nH]c1=O` gave a melting point of 304 to 306 °C.

`Cn1nc(C(=O)O)cc1-c1ccc2c(c1)OCO2` registered a melting point of 214 to 216 °C.

Compound `Cc1ccc2ncc(C(=O)O)c(=O)n2c1` displayed a melting point of 259 to 261 °C.

The compound `COc1ccc2c(c1)OCC(C=O)=C2` had a melting point of 82 to 84 °C.

The compound `Nc1ccc(S(=O)(=O)N2CCC(Cc3ccccc3)CC2)cc1` yielded a melting point of 153 to 155 °C.

Compound `NC(=O)N1CC=C(c2ccc(O)cc2)CC1` gave a melting point of 244 to 246 °C.

As to `COc1ncc(Br)cc1CC(=O)O`, the melting point fell in the range of 129 to 131 °C.

On to `Oc1ccc(Nc2nnns2)cc1`, for which the melting point was in the range of 159 to 161 °C.

For the compound `COc1cc([N+](=O)[O-])ccc1I`, the melting point was in the range of 127 to 129 °C.

Turning to `NC(=S)c1ccn[nH]1`, the melting point fell in the range of 183 to 185 °C.

`Sc1nnc(-c2cccs2)o1` yielded a melting point of 162 to 164 °C.

As to `Cc1ccc2cc(CCl)c(Cl)nc2c1`, the melting point lay within 132 to 134 °C.

For the compound `COCCn1c(N)cc(=O)[nH]c1=O`, the melting point lay in the range of 90 to 92 °C.

The compound `NS(=O)(=O)c1cc([N+](=O)[O-])ccc1Cl` came in with a melting point of 155 to 157 °C.

In turn, `CCOc1ccc2cc(C(=O)O)[nH]c2c1` gave a melting point of 168 to 170 °C.

The compound `O=C(O)c1cccc(OCc2cn3ccccc3n2)c1` had a melting point of 197 to 199 °C.

`COc1ccc(C2(C(=O)O)CCCC2)cc1OC` showed a melting point of 140 to 142 °C.

For the compound `O=C(Nc1ccc(Br)cc1)C1CCNCC1`, the melting point was in the range of 209 to 211 °C.

In turn, `Cn1nc(Br)c(C(=O)NCC(=O)O)c1N` returned a melting point of 239 to 241 °C.

With `Nc1ncccc1-c1ccccc1`, the melting point fell in the range of 103 to 105 °C.

The compound `O=C(O)c1nc(Cl)ccc1F` displayed a melting point of 149 to 151 °C.

Regarding `NC(=S)NC1CCOCC1`, the melting point was in the range of 228 to 230 °C.

`O=C(O)c1cc([N+](=O)[O-])cc(F)c1F` displayed a melting point of 132 to 134 °C.

In turn, `Cc1[nH]c(=O)c(C#N)c(C)c1CCC(=O)O` returned a melting point of 253 to 257 °C.

In the case of `Cc1nnc(S)n1CC(N)=O`, the melting point was in the range of 232 to 234 °C.
